Values of other authors in patent publication US8617906B2, “Identification and screening of triptolide target molecules” (priority 2004, dated 2013).

Legend:
dopaminergic neurons = details: cited from earlier work
[1] = 0.5-1 μg/kg; cited from earlier work
[2] = cited from earlier work
[3] = in vivo; cited from earlier work
Akt/PKB = details: cited from earlier work
AML cells = details: cited from earlier work
IL-2 = details: cited from earlier work
[4] = tested on: human T cell lymphoma (Jurkat) cells; details: cited from earlier work
Thioredoxin reductase = Thioredoxin reductase (Homo sapiens, UniProt Q16881); details: cited from earlier work
Sequence of Thioredoxin reductase (Q16881 151-649 limits assumed): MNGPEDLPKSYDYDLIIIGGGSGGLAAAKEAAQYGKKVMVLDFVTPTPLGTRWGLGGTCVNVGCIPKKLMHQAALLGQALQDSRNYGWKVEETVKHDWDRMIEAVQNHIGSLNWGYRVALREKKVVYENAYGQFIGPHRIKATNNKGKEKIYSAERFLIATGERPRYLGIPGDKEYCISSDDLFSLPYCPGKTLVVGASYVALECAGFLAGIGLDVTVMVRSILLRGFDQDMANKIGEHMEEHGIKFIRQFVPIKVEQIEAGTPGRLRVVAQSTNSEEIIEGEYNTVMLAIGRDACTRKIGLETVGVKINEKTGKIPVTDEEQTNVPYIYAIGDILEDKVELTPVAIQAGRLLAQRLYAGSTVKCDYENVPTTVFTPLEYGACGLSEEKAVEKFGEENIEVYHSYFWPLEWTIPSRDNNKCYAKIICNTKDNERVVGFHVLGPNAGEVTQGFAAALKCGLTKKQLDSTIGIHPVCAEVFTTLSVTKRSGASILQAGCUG

## CC(C)[C@]1(O)[C@H](Cl)[C@@H]2O[C@]23[C@]2(O[C@H]2C[C@H]2C4=C(CC[C@@]23C)C(=O)OC4)[C@@H]1O [Tripchlorolide]
Dopaminergic neurons
  dopaminergic neuron axonal elongation: promotes dopaminergic neuron axonal elongation
  protection from neurotoxic lesion induced by 1-methyl-4-phenylpyridinium ion: protects dopaminergic neurons from a neurotoxic lesion
Dopaminergic neurons; in situ hybridization
  brain-derived neurotrophic factor mRNA expression: stimulates brain-derived neurotrophic factor mRNA expression
[1]
  TNF-α and IL-2 levels in the brain: attenuates the elevation of TNF-α and IL-2 levels in the brain
  dopamine depletion: attenuates dopamine depletion
  recovery of rats undergoing neurosurgery: improves recovery of rats undergoing neurosurgery
  sparing of SN neurons: significant sparing of SN neurons
  survival of dopaminergic neurons: increases the survival of dopaminergic neurons
[2]
  conversion in vivo to triptolide: prodrug of triptolide

## 14-succinimide ester of triptolide
[3]
  bleomycin-induced PF: block bleomycin-induced PF

## CC(C)[C@]12O[C@H]1[C@@H]1O[C@]13[C@]1(O[C@H]1C[C@H]1C4=C(CC[C@@]13C)C(=O)OC4)[C@@H]2OC(=O)CCC(=O)[O-].[Na+] [PG490-88]
[2]
  conversion in vivo to triptolide: converting in vivo to triptolide

## Cc1cc(C)c(/C=C2\C(=O)Nc3ccccc32)[nH]1 [SU-5416]
Akt/PKB
  VEGF-stimulated phosphorylation of Akt/PKB: abolished
AML cells
  VEGF-induced colony formation / clonogenic response: abolished

## CC(C)[C@]12O[C@H]1[C@@H]1O[C@]13[C@]1(O[C@H]1C[C@H]1C4=C(CC[C@@]13C)C(=O)OC4)[C@H]2F [PG763, 14-deoxy-14α-fluoro triptolide]
IL-2
  inhibition of IL-2: inhibition of IL-2
[4]
  cytotoxicity: cytotoxicity in human T cell lymphoma (Jurkat) cells

## CC(=O)OC[C@H]1O[C@@H]([S-])[C@H](OC(C)=O)[C@@H](OC(C)=O)[C@@H]1OC(C)=O.CCP(CC)CC.[Au+] [auranofin]
Thioredoxin reductase
  thioredoxin reductase as drug target: target of auranofin
